Results published in US11578060B2, “JAK3 selective inhibitor” (PEKING UNIVERSITY SHENZHEN GRADUATE SCHOOL, priority 2018, dated 2023).

Columns and labels:
[1] = test system: STAT3 phosphorylation (IL-6 signal pathway); assay: Cellular selectivity assay: IL-6-stimulated STAT3 phosphorylation in PBMCs; format: cell-based, human; settings: IL-6, doses as high as 10 μM
[2] = test system: panel of kinases; settings: tested at 1 μM
[3] = test system: STAT5 phosphorylation; assay: Cell washout experiment, IL-15-stimulated CTLL-2 cells; format: cell-based, Mouse; settings: CTLL-2, 2 h treatment, washed three times, IL-15 30 min
Method: The washout procedures are as follows: CTLL-2 cells were treated with compounds for 2 hours. Then, for washout groups, cells were washed three times with PBS. The non-washout groups were kept constant. Cells were then stimulated with IL-15 for 30 min, lysed, and subjected to standard Western blot. Cells, treated with compounds, were extensively washed with PBS.

[4] = molecular target: GSK3β (Homo sapiens, UniProt P49841); assay: Selectivity assay against a panel of kinases: GSK3β; format: biochemical; settings: tested at 1 μM
Sequence of GSK3β (P49841 whole entry, species assumed): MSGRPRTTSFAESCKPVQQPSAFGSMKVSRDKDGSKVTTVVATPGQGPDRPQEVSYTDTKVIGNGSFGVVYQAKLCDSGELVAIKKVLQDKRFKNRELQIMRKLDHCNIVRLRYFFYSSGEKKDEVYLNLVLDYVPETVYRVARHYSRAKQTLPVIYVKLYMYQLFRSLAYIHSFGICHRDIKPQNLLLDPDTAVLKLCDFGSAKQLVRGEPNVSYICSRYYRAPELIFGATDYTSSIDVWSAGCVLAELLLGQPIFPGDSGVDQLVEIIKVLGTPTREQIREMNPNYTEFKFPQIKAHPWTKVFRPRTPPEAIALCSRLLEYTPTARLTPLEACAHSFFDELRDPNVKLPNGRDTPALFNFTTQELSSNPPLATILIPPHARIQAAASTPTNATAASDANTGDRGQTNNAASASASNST

[5] = molecular target: PKCγ (Homo sapiens, UniProt P05129); assay: Selectivity assay against a panel of kinases: PKCγ; format: biochemical; settings: tested at 1 μM
[6] = test system: STAT1 phosphorylation (IFN-α signal pathway); assay: Cellular selectivity assay: IFN-α-stimulated STAT1 phosphorylation in PBMCs; format: cell-based, human; settings: doses as high as 10 μM
[7] = test system: IL-15-induced STAT5 phosphorylation; assay: IL-15-induced STAT5 phosphorylation in PBMC (Western blot); format: cell-based, human
[8] = molecular target: PKCα (Homo sapiens, UniProt P17252); assay: Selectivity assay against a panel of kinases: PKCα; format: biochemical; settings: tested at 1 μM
[9] = test system: TNF-α release; assay: LPS-induced TNF-α release assay in PBMCs (ELISA); format: cell-based, human; settings: LPS-challenged PBMCs, 24 h
Method: (§1) The LPS-induced IL-6 and TNF-α release assay was carried out as follows: frozen PBMCs (from Allcells) were thawed in RPMI1640 (Thermo Fisher) containing 10% FBS and recovered overnight at 37° C. The next day, cells were diluted to 1×10^6 cells/mL and seeded (500 μL) in 6-well plates. Compounds or DMSO (5 μL, serially diluted in DMSO) were added to the plates and incubated with cells for 2 h at 37° C., followed by stimulation with LPS (5 μL, 1 μg/mL) and incubation for 24 h at 37° C. in 5% CO2. Supernatants were collected for determination of IL-6 and TNF-α levels using human IL-6 or human THF-α DuoSet ELISA Kits (R&D Systems) according to the manufacturer's instructions.

[10] = test system: IL-2-induced STAT5 phosphorylation; assay: IL-2-induced STAT5 phosphorylation in PBMC (Western blot)
[11] = test system: MCP-1 release; assay: IL-6 stimulated MCP-1 release assay; format: cell-based, human
Method: as §1
IL-6 stimulated inflammatory cytokine MCP-1 release assay was performed in a similar way.

[12] = test system: IL-6 release; assay: LPS-induced IL-6 release assay in PBMCs (ELISA); format: cell-based, human; settings: LPS-challenged PBMCs, 24 h
Method: as §1

[13] = test system: phosphorylation of downstream substrates of JAKs; settings: PBMCs; IL-15, IL-6, IFN-α

Compound	inhibition of STAT3 phosphorylation [1]	inhibition of most kinases of the panel [2]	inhibition of STAT5 phosphorylation after washing out with PBS [3]	inhibition at 1 µM [4]	inhibition at 1 µM [5]	inhibition of STAT1 phosphorylation [6]	inhibitory activity against IL-15-induced STAT5 phosphorylation compared with NIBR3049 ([7]; PBMC)	concentration that effectively abrogated phosphorylation of STAT5 ([7]; PBMCs, IL-15 stimulation)	inhibition at 1 µM [8]	effect on LPS-induced release of TNF-α [9]	inhibitory activity against IL-2-induced STAT5 phosphorylation compared with NIBR3049 [10]	effect on IL-6-induced MCP-1 release [11]	effect on LPS-induced release of IL-6 [12]	cellular selectivity among JAKs (three cytokines) [13]
C=CC(=O)N1CCN(c2ccc([N+](=O)[O-])c(C3=C(c4c[nH]c5ccccc45)C(=O)NC3=O)c2)CC1 [Compound 32, 3-(5-(4-acryloylpiperazin-1-yl)-2-(nitro)phenyl)-4-(1H-indol-3-yl)-1H-pyrrole-2,5-dione]	only partial inhibition	no more than 50%	sustained inhibition of STAT5 phosphorylation	> 50%	> 50%	only partial inhibition	higher inhibitory activity	300 nM	> 50%	significantly inhibited	higher inhibitory activity	did not inhibit	significantly inhibited	
CC(C)(O)C(=O)N1CCN(c2ccc(C(F)(F)F)c(C3=C(c4c[nH]c5ccccc45)C(=O)NC3=O)c2)CC1 [NIBR3049, reference compound]			almost lost after washing out											
Tofacitinib [reference compound]			almost lost after washing out							increased cytokine production in different degrees		did not inhibit	increased cytokine production in different degrees	did not show obvious selectivity
